Columns and labels:
[1] = 5 ppm astaxanthin in the feed; cited from earlier work
[2] = Carcass characteristics and loin eye color of finishing pigs fed astaxanthin; format: in vivo, pigs (barrows, PIC TR4×C22 cross); conditions: for Loin eye area / Loin eye color CIE L* / Loin eye color CIE a* / Loin eye color CIE b*: 10th rib; for Loin eye area / Backfat-1st rib / Backfat-10th rib / Backfat-Last Lumbar / Backfat-Last rib: 24-h postmortem; for Loin eye color CIE L* / Loin eye color CIE a* / Loin eye color CIE b*: 30 minutes bloom time
Experimental: (§1) Forty-eight barrows (PIC, TR4×C22 cross) averaging 215 lb were used in the study. Pigs were blocked by weight and randomly allotted to one of the four dietary treatments with two pigs per pen and six pens per treatment. Experimental diets were provided in meal form and astaxanthin (0, 5, 10 and 20 ppm) was added to the control diet at the expense of corn starch to achieve the dietary treatments (Table 1). In Table 1, CP is crude protein; P is […]; ME is metabolizable energy; and TID is true ileal digestible. Pigs and feeders were weighed on day (d) 0, 7, 14, 21 and 26 to determine the growth performance criteria of average daily gain (ADG), average daily food intake (ADFI), and feed conversion (F/G).
On d 27, one pig per pen was transported to the KSU meats lab for humane slaughter and collection of carcass data. Hot carcass weight was collected immediately after evisceration. First-rib, tenth-rib, last-rib, and last-lumbar backfat depth, as well as loin eye area at the 10th-rib, were collected from the right half of each carcass 24-h postmortem. Additionally, each carcass was evaluated for loin muscle color at the 10th-rib with a Hunter MiniScan instrument to measure CIE L*, a* and b*, known color parameters relating to brightness, red-to-green coloration and yellow-to-blue coloration, as known in the art. That was performed after 30 minutes of bloom time, the time to oxygenate myoglobin thereby obtaining maximal pink or red coloration, for each loin muscle surface.
(§2) Data were analyzed as a randomized complete block design using the PROC MIXED procedure of SAS with pen as the experimental unit. Linear and quadratic polynomial contrasts were used to determine the effect of increasing astaxanthin.
(§3) The source of natural astaxanthin used in the example was Phaffia rhodozyma which is commercially available under the trade name Aquasta® containing 10,000 ppm astaxanthin, by weight.

[3] = cited from earlier work
[4] = Growth performance of finishing pigs fed increasing levels of astaxanthin (d 0 to 26); format: in vivo, pigs (barrows, PIC TR4×C22 cross); conditions: for ADFI / ADG / F/G / Final Wt.: d 0 to 26
Experimental: Procedures used in the experiment were approved by the Kansas State University Animal Care and Use Committee. The project was conducted at the KSU Swine Teaching and Research Farm. Pigs were housed in an environmentally regulated finishing building with pens over a totally slatted floor that provided approximately 8 ft^2 per pig. Each pen was equipped with a dry self-feeder and one nipple waterer, thereby providing ad libitum access to feed and water. The facility was a mechanically ventilated room with a pull-plug manure storage pit.
as §1, §2, §3

[5] = 5 ppm astaxanthin in diet for 26 d
[6] = 5 ppm astaxanthin in diet for 26 d before slaughter
[7] = 10 ppm astaxanthin in diet for 26 d
[8] = 10 ppm astaxanthin in diet for 26 d before slaughter
[9] = 20 ppm astaxanthin in diet for 26 d
[10] = 20 ppm astaxanthin in diet for 26 d before slaughter
[11] = astaxanthin 5, 10, 20 ppm in diet

CC1=C(/C=C/C(C)=C/C=C/C(C)=C/C=C/C=C(C)/C=C/C=C(C)/C=C/C2=C(C)C(=O)C(O)CC2(C)C)C(C)(C)CC(O)C1=O (stereo not drawn) [Astaxanthin, 3,3′-dihydroxy-β,β-carotene-4,4′dione]
performance of sows (stillborn in the litter, parity) [1]: improved performance of sows | percent fat-free lean (PFFL), comparison of doses ([2]; 5 or 10 ppm astaxanthin versus 0 or 20 ppm, p<0.10): greatest percent fat-free lean | Loin eye area [2, 5]: 7.72 sq. in. | Loin eye color CIE L* [2, 5]: 55.3 | Loin eye color CIE a* [2, 5]: 10.1 | Loin eye color CIE b* [2, 5]: 14.8 | Backfat-1st rib [2, 5]: 1.40 in. | Backfat-10th rib [2, 5]: 0.65 in. | Backfat-Last Lumbar [2, 5]: 0.60 in. | Backfat-Last rib [2, 5]: 0.65 in. | Fat-Free Lean [2, 6]: 55.6% | Hot Carcass Wt. [2, 6]: 192 lb | Live Wt. [2, 6]: 273 lb | Standardized Fat-Free Lean [2, 6]: 107 lb | Yield [2, 6]: 70.6% | Loin eye area [2, 7]: 7.58 sq. in. | Loin eye color CIE L* [2, 7]: 58.9 | Loin eye color CIE a* [2, 7]: 8.2 | Loin eye color CIE b* [2, 7]: 14.4 | Backfat-1st rib [2, 7]: 1.33 in. | Backfat-10th rib [2, 7]: 0.65 in. | Backfat-Last Lumbar [2, 7]: 0.56 in. | Backfat-Last rib [2, 7]: 0.67 in. | Fat-Free Lean [2, 8]: 55.5% | Hot Carcass Wt. [2, 8]: 191 lb | Live Wt. [2, 8]: 271 lb | Standardized Fat-Free Lean [2, 8]: 106 lb | Yield [2, 8]: 70.6% | Loin eye area [2, 9]: 7.28 sq. in. | Loin eye color CIE L* [2, 9]: 56.2 | Loin eye color CIE a* [2, 9]: 10.3 | Loin eye color CIE b* [2, 9]: 15.1 | Backfat-1st rib [2, 9]: 1.41 in. | Backfat-10th rib [2, 9]: 0.70 in. | Backfat-Last Lumbar [2, 9]: 0.57 in. | Backfat-Last rib [2, 9]: 0.64 in. | Fat-Free Lean [2, 10]: 54.5% | Hot Carcass Wt. [2, 10]: 189 lb | Live Wt. [2, 10]: 270 lb | Standardized Fat-Free Lean [2, 10]: 103 lb | Yield [2, 10]: 70.3% | carcass traits and meat quality, benefit over lower doses ([2]; 20 ppm astaxanthin in the diet, optimum 5 to 10 ppm): no additional benefit | backfat depth measured at the first rib, tenth rib and last rib, versus control ([2]; pigs fed astaxanthin, p<0.10): less backfat depth | effect on production performance ([3]; 0, 1.5 and 3.0 ppm astaxanthin in the diet): no significant effect | effect on dressing percentage, backfat thickness and loin muscle area ([3]; with increasing dietary astaxanthin level (0, 1.5, 3.0 ppm)): linear effect | ADFI ([4]; 5 ppm astaxanthin in diet): 6.76 lb | ADG ([4]; 5 ppm astaxanthin in diet): 2.23 lb | F/G ([4]; 5 ppm astaxanthin in diet): 3.05 | Final Wt. ([4]; 5 ppm astaxanthin in diet): 273 lb | ADFI ([4]; 10 ppm astaxanthin in diet): 6.24 lb | ADG ([4]; 10 ppm astaxanthin in diet): 2.03 lb | F/G ([4]; 10 ppm astaxanthin in diet): 3.08 | Final Wt. ([4]; 10 ppm astaxanthin in diet): 268 lb | ADFI ([4]; 20 ppm astaxanthin in diet): 6.20 lb | ADG ([4]; 20 ppm astaxanthin in diet): 1.99 lb | F/G ([4]; 20 ppm astaxanthin in diet): 3.16 | Final Wt. ([4]; 20 ppm astaxanthin in diet): 267 lb | ADG versus control pigs [4, 11]: not significantly different | F/G versus control pigs [4, 11]: not significantly different | average daily feed intake, trend ([4]; with increasing level of astaxanthin (0, 5, 10, 20 ppm)): tended to decrease
